Laboratory results as given in ChEMBL document CHEMBL1201862, “PubChem BioAssay data set” (2004).
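Protocol summary: plate cells (96-well), add compound at 5 concentrations, incubate 48 h, interpolate endpoints linearly. GI50 = concentration required for 50% inhibition of growth.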 Calls of active or inactive are those of the source. Rule as the data show it: active = GI50 up to about 1.1 µM and inactive = higher.

What was measured:
Assay in all cases: inhibition of tumour cell growth, NCI panel, 48 h
[1] = system: SF-295
[2] = system: T47D
[3] = system: MCF7
[4] = system: 786-0
[5] = system: Malme-3M
[6] = system: SNB-75
[7] = system: SW-620
[8] = system: HCT-116
[9] = system: M14
[10] = system: ACHN
[11] = system: CAKI-1
[12] = system: HT-29
[13] = system: Hs-578T
[14] = system: SF-539
[15] = system: RPMI-8226
[16] = system: OVCAR-5
[17] = system: EKVX
[18] = system: NCI-H23
[19] = system: RXF 393
[20] = system: HOP-62
[21] = system: COLO 205
[22] = system: LOX IMVI
[23] = system: MOLT-4
[24] = system: SK-OV-3
[25] = system: KM12
[26] = system: BT-549
[27] = system: NCI/ADR-RES
[28] = system: NCI-H226
[29] = system: SF-268
[30] = system: TK-10
[31] = system: CCRF-CEM
[32] = system: OVCAR-3
[33] = system: SK-MEL-28
[34] = system: NCI-H522
[35] = system: SNB-19
[36] = system: PC-3
[37] = system: SR
[38] = system: SN12C
[39] = system: UO-31
[40] = system: MDA-N
[41] = system: DU-145
[42] = system: MDA-MB-231
[43] = system: A498
[44] = system: A549
[45] = system: OVCAR-4
[46] = system: SK-MEL-5
[47] = system: SK-MEL-2
[48] = system: K562
[49] = system: UACC-257
[50] = system: MDA-MB-435
[51] = system: HCT-15
[52] = system: HOP-92
[53] = system: IGROV-1
[54] = system: OVCAR-8
[55] = system: U-251
[56] = system: NCI-H460
[57] = system: UACC-62

Nc1ccc(-c2nnc(-c3c(Cl)c(Cl)c(Cl)c(Cl)c3-c3nc4cc(C(=O)c5ccccc5)ccc4[nH]3)o2)cc1
GI50 [1]: 19.5 µM (inactive) | GI50 [2]: 18.3 µM (inactive) | GI50 [3]: 16 µM (inactive) | GI50 [4]: 17.1 µM (inactive) | GI50 [5]: 22.8 µM (inactive) | GI50 [6]: 24 µM (inactive) | GI50 [7]: 29.5 µM (inactive) | GI50 [8]: 20.6 µM (inactive) | GI50 [9]: 16.6 µM (inactive) | GI50 [10]: 41.7 µM (inactive) | GI50 [11]: 48.1 µM (inactive) | GI50 [12]: 20.5 µM (inactive) | GI50 [13]: 28 µM (inactive) | GI50 [14]: 14.2 µM (inactive) | GI50 [15]: 14.8 µM (inactive) | GI50 [16]: 37.9 µM (inactive) | GI50 [17]: 28.6 µM (inactive) | GI50 [18]: 33 µM (inactive) | GI50 [19]: 10.9 µM (inactive) | GI50 [20]: 21.6 µM (inactive) | GI50 [21]: 18.6 µM (inactive) | GI50 [22]: 34.6 µM (inactive) | GI50 [23]: 15.9 µM (inactive) | GI50 [24]: 26.1 µM (inactive) | GI50 [25]: 27.9 µM (inactive) | GI50 [26]: 24.6 µM (inactive) | GI50 [27]: 16 µM (inactive) | GI50 [28]: 18 µM (inactive) | GI50 [29]: 28.5 µM (inactive) | GI50 [30]: 27.5 µM (inactive) | GI50 [31]: 14.8 µM (inactive) | GI50 [32]: 21 µM (inactive) | GI50 [33]: 28.5 µM (inactive) | GI50 [34]: 13.5 µM (inactive) | GI50 [35]: 27.2 µM (inactive) | GI50 [36]: 16.6 µM (inactive) | GI50 [37]: 5.16 µM (inactive) | GI50 [38]: 16.8 µM (inactive) | GI50 [39]: 35.7 µM (inactive) | GI50 [40]: 4.68 µM (inactive) | GI50 [41]: 24.8 µM (inactive) | GI50 [42]: 19.3 µM (inactive) | GI50 [43]: 18.5 µM (inactive) | GI50 [44]: 28.1 µM (inactive) | GI50 [45]: 24.5 µM (inactive) | GI50 [46]: 11.1 µM (inactive) | GI50 [47]: 24.5 µM (inactive) | GI50 [48]: 8 µM (inactive) | GI50 [49]: 48.4 µM (inactive) | GI50 [50]: 4.95 µM (inactive) | GI50 [51]: 15.7 µM | GI50 [52]: 27.2 µM (inactive) | GI50 [53]: 28.5 µM (inactive) | GI50 [54]: 43.8 µM (inactive) | GI50 [55]: 18.1 µM (inactive)

O=C(O)CCC(C(=O)O)N1C(=O)C2C3CCC(C3)C2C1=O (stereo not given)
GI50 [1]: > 100 µM (inactive) | GI50 [2]: > 100 µM (inactive) | GI50 [3]: > 100 µM (inactive) | GI50 [4]: > 100 µM (inactive) | GI50 [5]: > 100 µM (inactive) | GI50 [6]: > 100 µM (inactive) | GI50 [7]: > 100 µM (inactive) | GI50 [8]: > 100 µM (inactive) | GI50 [9]: > 100 µM (inactive) | GI50 [10]: > 100 µM (inactive) | GI50 [11]: > 100 µM (inactive) | GI50 [12]: > 100 µM (inactive) | GI50 [13]: > 100 µM (inactive) | GI50 [14]: > 100 µM (inactive) | GI50 [15]: > 100 µM (inactive) | GI50 [16]: > 100 µM (inactive) | GI50 [17]: > 100 µM (inactive) | GI50 [18]: > 100 µM (inactive) | GI50 [19]: > 100 µM (inactive) | GI50 [20]: > 100 µM (inactive) | GI50 [21]: > 100 µM (inactive) | GI50 [22]: > 100 µM (inactive) | GI50 [23]: > 100 µM (inactive) | GI50 [24]: > 100 µM (inactive) | GI50 [25]: > 100 µM (inactive) | GI50 [26]: > 100 µM (inactive) | GI50 [27]: > 100 µM (inactive) | GI50 [28]: > 100 µM (inactive) | GI50 [29]: > 100 µM (inactive) | GI50 [30]: > 100 µM (inactive) | GI50 [32]: > 100 µM (inactive) | GI50 [33]: > 100 µM (inactive) | GI50 [34]: > 100 µM (inactive) | GI50 [35]: > 100 µM (inactive) | GI50 [36]: > 100 µM (inactive) | GI50 [37]: > 100 µM (inactive) | GI50 [38]: > 100 µM (inactive) | GI50 [40]: > 100 µM (inactive) | GI50 [41]: > 100 µM (inactive) | GI50 [56]: > 100 µM (inactive) | GI50 [42]: > 100 µM (inactive) | GI50 [43]: > 100 µM (inactive) | GI50 [44]: > 100 µM (inactive) | GI50 [45]: > 100 µM (inactive) | GI50 [46]: > 100 µM (inactive) | GI50 [47]: > 100 µM (inactive) | GI50 [48]: > 100 µM (inactive) | GI50 [49]: > 100 µM (inactive) | GI50 [50]: > 100 µM (inactive) | GI50 [51]: > 100 µM | GI50 [52]: > 100 µM (inactive) | GI50 [53]: > 100 µM (inactive) | GI50 [54]: > 100 µM (inactive) | GI50 [55]: > 100 µM (inactive) | GI50 [57]: > 100 µM (inactive)
